Measurements from the supplement of paper PMC10307832.

Tests used:
Test in all cases: relative viability (nuclei count vs DMSO), 5 days (fraction); higher = more cells survive
4EGI-1 + Linsitinib = compound: O=C(O)C(Cc1ccccc1[N+](=O)[O-])=NNc1nc(-c2ccc(Cl)c(Cl)c2)cs1 (mixture of isomers) [4EGI-1] + C[C@]1(O)C[C@@H](c2nc(-c3ccc4ccc(-c5ccccc5)nc4c3)c3c(N)nccn32)C1 [Linsitinib] (partner 1 µM)
Outline: (§1)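 Medians of duplicate plates are given as relative viability. That measure is the nuclei count in treated wells divided by the count in vehicle wells. Counts were taken on 4× images of lung cancer cell lines in 1536-well plates, 5 days after pin-tool dosing the day after seeding with one drug alone or a fixed anchor-drug dose plus five library-drug doses (not always all listed) in √10 steps.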

XMD8-85 + OSI-027 = compound: CN1CCN(CC1)C2=CC(=C(C=C2)NC3=NC=C4C(=N3)N(C5=CC=CC=C5C(=O)N4C)C)OC [XMD8-85] + COc1cccc2cc(-c3nc([C@H]4CC[C@H](C(=O)O)CC4)n4ncnc(N)c34)[nH]c12 [OSI-027] (partner 0.5 µM)
Outline: as §1

XMD8-85 + Vorinostat = compound: CN1CCN(CC1)C2=CC(=C(C=C2)NC3=NC=C4C(=N3)N(C5=CC=CC=C5C(=O)N4C)C)OC [XMD8-85] + O=C(CCCCCCC(=O)Nc1ccccc1)NO [Vorinostat] (partner 1 µM)
Outline: as §1

4EGI-1 + Navitoclax = compound: O=C(O)C(Cc1ccccc1[N+](=O)[O-])=NNc1nc(-c2ccc(Cl)c(Cl)c2)cs1 (mixture of isomers) [4EGI-1] + CC1(C)CCC(c2ccc(Cl)cc2)=C(CN2CCN(c3ccc(C(=O)NS(=O)(=O)c4ccc(N[C@H](CCN5CCOCC5)CSc5ccccc5)c(S(=O)(=O)C(F)(F)F)c4)cc3)CC2)C1 [Navitoclax] (partner 0.5 µM)
Outline: as §1

Cell Line	relative viability (4EGI-1 + Linsitinib; first compound 0.5 µM)	relative viability (4EGI-1 + Linsitinib; first compound 1.581 µM)	relative viability (4EGI-1 + Linsitinib; first compound 5 µM)	relative viability (4EGI-1 + Linsitinib; first compound 50 µM)	relative viability (XMD8-85 + OSI-027; first compound 0.08 µM)	relative viability (XMD8-85 + OSI-027; first compound 0.253 µM)	relative viability (XMD8-85 + OSI-027; first compound 0.8 µM)	relative viability (XMD8-85 + OSI-027; first compound 8 µM)	relative viability (XMD8-85 + Vorinostat; first compound 0.08 µM)	relative viability (XMD8-85 + Vorinostat; first compound 0.253 µM)	relative viability (XMD8-85 + Vorinostat; first compound 0.8 µM)	relative viability (XMD8-85 + Vorinostat; first compound 8 µM)	relative viability (4EGI-1 + Navitoclax; first compound 0.5 µM)	relative viability (4EGI-1 + Navitoclax; first compound 5 µM)	relative viability (4EGI-1 + Navitoclax; first compound 50 µM)	relative viability (4EGI-1 + Linsitinib; first compound 15.81 µM)	relative viability (XMD8-85 + OSI-027; first compound 2.53 µM)	relative viability (XMD8-85 + Vorinostat; first compound 2.53 µM)	relative viability (4EGI-1 + Navitoclax; first compound 1.581 µM)	relative viability (4EGI-1 + Navitoclax; first compound 15.81 µM)
PC-14	1.01	0.741	0.983	0.94	0.835	0.971	0.776	0.373	0.463	0.566	0.667	0.327	1.09	0.985	0.981					
NCI-H520	1.19	0.984	1.01	0.558	0.245	0.257	0.232	0.195	0.774	0.69		0.331	1.23	1.14	0.431	0.75	0.257	0.673	1.11	1.02
NCI-H2342					0.606	0.605		0.641	0.767	0.75	0.72	0.991					0.594	0.927		
NCI-H3122	1.04	0.956	0.943	0.567	0.867	1.02	1.34	0.532	1.02	1.17	1.03	1.38	1.01	1.02	1.01	1.01	1.08	1.08	0.975	1.06
HCC-78	0.612	0.373	0.453	0.479	0.367	0.334	0.391	0.286	0.395	0.43	0.391	0.434	0.96	0.753	0.802	0.484	0.35	0.427	0.492	0.829
SW 1573	1	0.669	0.917	0.961	0.566	0.61	0.669	0.327	0.643	0.739	1.11	0.46	1.26	0.947	0.674	0.741	0.607	0.596	0.927	0.843
RERF-LC-KJ	0.966	0.706	0.868	0.843	0.684	0.504	0.645	0.461	0.656	0.671	0.849	0.43	0.902	0.858	0.706	0.815	0.577	0.685		0.632
SK-MES-1	1.12	1.07	1.1	0.987	0.533	0.657	0.608	0.457	0.761	1.27	1.05	0.474	1.18	1.19	0.949	0.887	0.525	1.03	1.27	1.01
NCI-H1993	0.754	0.757	0.737	0.706	0.516	0.454	0.636	0.552	0.559	0.783	0.839	0.766	0.952	0.77	0.483	0.699	0.548	0.825	0.895	0.7
